We go through one molecule from patent publication US11911353B2, “Fatty acid synthase inhibitor and application thereof” (Jiangnan University, priority 2019, dated 2024).

In assay [1] the test system is tumor cells 22RV1, PC-3, HT-29, Hela, Hep G2, CaCo-2 and HCT116. The assay can be described thus: MTT proliferation of various tumor cells at single concentration (FIG. 2). It counts as cell-based. The note with it: 10 μM, 72 hours, 7 different tumor cells. From the text:
Cell survival rate=(OD570−OD630)/(OD570 negative control−OD630 negative control); wherein, OD570: OD570 value of each treatment group; OD630: OD630 value of each treatment group; OD570 control: OD570 value of the negative control group; OD630 control: OD630 value of the negative control group.

Assay [2] has as its target T1, fatty acid synthase (FASN) in colon cancer cells HCT116 (Homo sapiens, UniProt P49327).
T1 construct: endogenous in cells; host or cells: HCT116 colon cancer cells
In words: FASN enzyme activity detection in treated HCT116 cells (NADPH absorbance at 340 nm). It counts as cell-based. The note with it: HCT-116, 4 hours of incubation, read-out: FASN enzyme activity inhibition rate (%).

The next assay deals with nematodes. The assay can be described thus: Accumulation of lipid droplets in nematodes, oil red staining (FIG. 7). To be noted: 10 μM, 9 days. It counts as in vivo. On the procedure:
Nematodes are taken and resuspended in an M9 buffer, 3 ml of nematode suspension is added into each test tube, the compound shown as the formula I is added into an experimental group to make the final concentration reach 10 μM, a group with no addition of the compound shown as the formula I is used as a control, the suspension is subjected to shaking culture on a shaker at 200 rpm/min, oil red staining is carried out after 9 days, the suspension is placed on a glass slide for observing the lipid droplet condition under a microscope.

For another assay, the system named is preadipocytes OP9. The assay can be described thus: Lipid droplet formation in preadipocytes OP9, oil red O staining (FIG. 6). It counts as cell-based. The note with it: 20 μM, differentiation with 1 μM rosiglitazone, OD510. On the procedure:
The effect of the compound shown as the formula I-1 on preadipocytes OP9 is detected: • (1) The cancer cells in the logarithmic growth phase are taken and inoculated into a 6 cm culture dish with the inoculation density of 2*10^6 cells, and incubated under 5% CO2 at 37° C. • (2) After cell adherence, 6 ml of 10% FBS culture medium containing 20 μM of the compound shown as the formula I is added into each dish with the culture medium as a negative control; cerulenin as a positive control; and 1 μM rosiglitazone (RSG) is used for differentiation. • (3) To observe the formation of lipid droplets, cells were incubated with 4% paraformaldehyde solution for 30 min at room temperature, washed with phosphate-buffered saline (PBS), and then stained with 0.5% oil red O in 60% isopropanol. • (4) After washing with distilled water, the stained cells were observed through a microscope, and then oil red O was extracted with isopropanol for quantification. This quantification was performed by measuring the absorbance of isopropanol solutions of oil red O at 510 nm.

T1 sequence (P49327 whole entry): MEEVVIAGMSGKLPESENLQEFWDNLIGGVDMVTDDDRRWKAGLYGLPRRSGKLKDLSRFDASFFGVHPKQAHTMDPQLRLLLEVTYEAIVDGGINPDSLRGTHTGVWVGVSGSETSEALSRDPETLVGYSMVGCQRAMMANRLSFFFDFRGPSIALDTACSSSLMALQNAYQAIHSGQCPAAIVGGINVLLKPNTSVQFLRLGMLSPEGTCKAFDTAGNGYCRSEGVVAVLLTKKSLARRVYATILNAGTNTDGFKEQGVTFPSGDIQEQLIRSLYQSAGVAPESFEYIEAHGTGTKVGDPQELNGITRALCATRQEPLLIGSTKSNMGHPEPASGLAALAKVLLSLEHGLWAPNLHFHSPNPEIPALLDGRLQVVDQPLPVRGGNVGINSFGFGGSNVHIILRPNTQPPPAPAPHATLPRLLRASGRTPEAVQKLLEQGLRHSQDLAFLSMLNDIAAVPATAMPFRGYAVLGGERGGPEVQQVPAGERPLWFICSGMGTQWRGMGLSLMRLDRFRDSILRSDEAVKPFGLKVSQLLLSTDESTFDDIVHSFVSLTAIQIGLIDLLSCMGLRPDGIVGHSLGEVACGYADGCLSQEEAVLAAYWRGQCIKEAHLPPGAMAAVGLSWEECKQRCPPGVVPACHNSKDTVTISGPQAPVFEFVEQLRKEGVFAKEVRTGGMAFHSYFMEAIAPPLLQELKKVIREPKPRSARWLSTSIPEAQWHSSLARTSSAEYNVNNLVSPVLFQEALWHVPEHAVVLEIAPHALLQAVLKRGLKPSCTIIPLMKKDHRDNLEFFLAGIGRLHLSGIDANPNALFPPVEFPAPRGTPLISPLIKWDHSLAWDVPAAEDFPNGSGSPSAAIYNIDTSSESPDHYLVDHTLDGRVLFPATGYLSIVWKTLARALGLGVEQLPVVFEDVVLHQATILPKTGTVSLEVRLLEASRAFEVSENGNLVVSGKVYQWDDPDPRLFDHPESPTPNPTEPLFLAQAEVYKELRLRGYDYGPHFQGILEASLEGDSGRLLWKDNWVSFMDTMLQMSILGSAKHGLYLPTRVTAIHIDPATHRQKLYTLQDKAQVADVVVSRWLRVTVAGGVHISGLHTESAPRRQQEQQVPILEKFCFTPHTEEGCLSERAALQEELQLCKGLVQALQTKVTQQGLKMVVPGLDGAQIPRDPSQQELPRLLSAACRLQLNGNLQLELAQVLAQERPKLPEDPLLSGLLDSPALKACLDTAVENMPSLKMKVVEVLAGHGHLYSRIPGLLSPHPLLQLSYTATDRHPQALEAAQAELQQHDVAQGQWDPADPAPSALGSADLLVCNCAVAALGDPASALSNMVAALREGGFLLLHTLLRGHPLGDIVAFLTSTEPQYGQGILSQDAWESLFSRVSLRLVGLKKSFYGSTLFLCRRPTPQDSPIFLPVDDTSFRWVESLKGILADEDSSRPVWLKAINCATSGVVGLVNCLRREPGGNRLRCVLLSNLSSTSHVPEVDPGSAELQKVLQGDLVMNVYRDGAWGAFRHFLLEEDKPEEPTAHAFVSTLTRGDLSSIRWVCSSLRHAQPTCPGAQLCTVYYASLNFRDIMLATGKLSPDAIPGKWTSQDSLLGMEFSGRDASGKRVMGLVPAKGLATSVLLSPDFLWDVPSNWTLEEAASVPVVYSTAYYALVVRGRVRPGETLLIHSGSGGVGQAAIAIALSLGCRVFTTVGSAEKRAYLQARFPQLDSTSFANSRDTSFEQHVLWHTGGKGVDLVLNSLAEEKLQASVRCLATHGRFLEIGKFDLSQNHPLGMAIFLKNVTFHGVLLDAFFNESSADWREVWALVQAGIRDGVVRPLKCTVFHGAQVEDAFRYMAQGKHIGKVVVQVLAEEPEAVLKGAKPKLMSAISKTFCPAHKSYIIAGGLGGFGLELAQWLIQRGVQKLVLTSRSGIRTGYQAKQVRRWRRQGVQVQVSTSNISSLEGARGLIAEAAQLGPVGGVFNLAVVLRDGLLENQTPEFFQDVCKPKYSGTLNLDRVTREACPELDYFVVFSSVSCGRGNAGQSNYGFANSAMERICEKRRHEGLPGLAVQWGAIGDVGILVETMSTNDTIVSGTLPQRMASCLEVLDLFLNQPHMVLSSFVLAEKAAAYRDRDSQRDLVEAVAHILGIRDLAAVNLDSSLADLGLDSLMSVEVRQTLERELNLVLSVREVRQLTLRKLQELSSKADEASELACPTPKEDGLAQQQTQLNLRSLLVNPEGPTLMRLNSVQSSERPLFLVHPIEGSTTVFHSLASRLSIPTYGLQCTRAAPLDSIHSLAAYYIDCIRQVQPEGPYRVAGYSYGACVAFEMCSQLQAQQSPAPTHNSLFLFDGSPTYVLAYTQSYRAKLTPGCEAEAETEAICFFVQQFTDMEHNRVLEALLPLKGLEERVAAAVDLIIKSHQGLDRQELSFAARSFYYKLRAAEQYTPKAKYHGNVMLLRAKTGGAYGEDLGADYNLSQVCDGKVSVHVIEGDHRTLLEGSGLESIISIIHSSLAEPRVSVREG

Usually inhibition stands for the percentage by which the read-out fell short of the control. In the case of `O=C(CCCC(=O)Nc1ccc(Br)cc1)N/N=C/c1cc(Br)ccc1O` [Compound I-1], the “effect on proliferation of tumor cells” value in assay [1] is on record as “significantly improved inhibitory effect on tumor proliferation”. The inhibition at 20 µM in assay [2] turned out to be 58.6%. Besides, the “accumulation of lipid droplets in nematodes” value in the assay with nematodes is “significantly lower than that of the control group”. The “number of lipid droplets in cells OP9” value in the assay with preadipocytes OP9 was “reduced significantly”.
